Experimental data from ChEMBL document CHEMBL3991601, “The target landscape of clinical kinase drugs” (Science, 2017).
Calls of active or inactive are those of the source.

Tests used:
[1] = biological target: Cyclin-dependent kinase 12 (Homo sapiens, UniProt Q9NYV4)
[2] = biological target: T1, ATP-dependent RNA helicase DDX42 (Homo sapiens, UniProt Q86XP3)
T1 sequence (Q86XP3 whole entry): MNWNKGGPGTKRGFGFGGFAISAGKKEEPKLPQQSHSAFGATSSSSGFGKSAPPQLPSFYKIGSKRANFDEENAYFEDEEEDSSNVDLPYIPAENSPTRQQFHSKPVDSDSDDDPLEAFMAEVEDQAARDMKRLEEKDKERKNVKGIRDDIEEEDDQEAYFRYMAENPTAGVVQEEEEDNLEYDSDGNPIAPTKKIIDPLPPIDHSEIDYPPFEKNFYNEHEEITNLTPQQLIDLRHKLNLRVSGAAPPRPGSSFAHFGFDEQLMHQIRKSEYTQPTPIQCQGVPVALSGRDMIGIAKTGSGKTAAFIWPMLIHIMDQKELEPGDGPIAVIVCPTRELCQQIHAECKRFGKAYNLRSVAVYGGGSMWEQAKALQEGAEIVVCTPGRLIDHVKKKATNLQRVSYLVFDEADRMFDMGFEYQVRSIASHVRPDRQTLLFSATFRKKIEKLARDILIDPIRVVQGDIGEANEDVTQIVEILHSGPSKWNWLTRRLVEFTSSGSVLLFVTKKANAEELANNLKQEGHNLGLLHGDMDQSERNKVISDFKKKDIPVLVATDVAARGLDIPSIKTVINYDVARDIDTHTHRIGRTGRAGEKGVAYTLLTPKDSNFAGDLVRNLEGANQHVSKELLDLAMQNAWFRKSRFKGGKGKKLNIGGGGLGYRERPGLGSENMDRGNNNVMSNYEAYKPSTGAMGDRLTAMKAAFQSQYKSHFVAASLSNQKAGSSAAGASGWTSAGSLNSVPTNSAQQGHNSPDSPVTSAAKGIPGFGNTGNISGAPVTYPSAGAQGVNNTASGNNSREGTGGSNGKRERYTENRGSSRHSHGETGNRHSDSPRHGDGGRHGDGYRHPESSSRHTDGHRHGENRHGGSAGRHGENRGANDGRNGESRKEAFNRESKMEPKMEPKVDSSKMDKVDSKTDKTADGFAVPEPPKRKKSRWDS

[3] = biological target: T2, Serine/threonine-protein kinase Nek3 (Homo sapiens, UniProt P51956)
T2 sequence (P51956 whole entry): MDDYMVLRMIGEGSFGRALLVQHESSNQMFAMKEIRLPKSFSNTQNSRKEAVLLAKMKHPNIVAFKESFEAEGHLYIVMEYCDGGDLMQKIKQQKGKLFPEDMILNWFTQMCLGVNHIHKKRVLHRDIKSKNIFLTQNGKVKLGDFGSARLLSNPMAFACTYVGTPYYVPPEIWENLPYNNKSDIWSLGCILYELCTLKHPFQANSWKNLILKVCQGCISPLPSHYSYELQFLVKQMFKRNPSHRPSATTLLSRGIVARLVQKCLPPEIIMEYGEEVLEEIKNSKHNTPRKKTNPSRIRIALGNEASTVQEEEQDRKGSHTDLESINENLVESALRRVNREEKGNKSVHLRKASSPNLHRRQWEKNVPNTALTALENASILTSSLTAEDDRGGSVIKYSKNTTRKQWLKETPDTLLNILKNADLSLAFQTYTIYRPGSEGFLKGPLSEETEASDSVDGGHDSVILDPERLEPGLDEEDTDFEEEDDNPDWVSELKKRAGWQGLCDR

[4] = biological target: T3, cGMP-dependent protein kinase 1 (Homo sapiens, UniProt Q13976)
T3 sequence (Q13976 whole entry): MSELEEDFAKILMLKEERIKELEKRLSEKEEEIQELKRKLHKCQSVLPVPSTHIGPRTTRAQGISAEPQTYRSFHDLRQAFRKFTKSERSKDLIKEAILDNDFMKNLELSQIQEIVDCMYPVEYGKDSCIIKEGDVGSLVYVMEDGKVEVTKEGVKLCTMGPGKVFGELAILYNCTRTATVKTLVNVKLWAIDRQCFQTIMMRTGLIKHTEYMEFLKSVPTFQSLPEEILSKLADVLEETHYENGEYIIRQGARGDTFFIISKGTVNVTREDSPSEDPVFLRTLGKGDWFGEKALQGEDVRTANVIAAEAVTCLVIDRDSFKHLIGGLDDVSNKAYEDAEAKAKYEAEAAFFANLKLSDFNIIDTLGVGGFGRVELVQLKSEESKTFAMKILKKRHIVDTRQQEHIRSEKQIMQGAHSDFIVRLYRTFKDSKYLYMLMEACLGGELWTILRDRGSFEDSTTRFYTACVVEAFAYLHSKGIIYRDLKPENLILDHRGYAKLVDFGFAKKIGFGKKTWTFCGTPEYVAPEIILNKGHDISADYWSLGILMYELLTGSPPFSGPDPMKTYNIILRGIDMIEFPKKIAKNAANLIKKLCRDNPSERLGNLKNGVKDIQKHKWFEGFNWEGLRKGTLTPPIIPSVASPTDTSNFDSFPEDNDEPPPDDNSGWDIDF

[5] = biological target: T4, Glycogen phosphorylase, brain form (Homo sapiens, UniProt P11216)
T4 sequence (P11216 whole entry): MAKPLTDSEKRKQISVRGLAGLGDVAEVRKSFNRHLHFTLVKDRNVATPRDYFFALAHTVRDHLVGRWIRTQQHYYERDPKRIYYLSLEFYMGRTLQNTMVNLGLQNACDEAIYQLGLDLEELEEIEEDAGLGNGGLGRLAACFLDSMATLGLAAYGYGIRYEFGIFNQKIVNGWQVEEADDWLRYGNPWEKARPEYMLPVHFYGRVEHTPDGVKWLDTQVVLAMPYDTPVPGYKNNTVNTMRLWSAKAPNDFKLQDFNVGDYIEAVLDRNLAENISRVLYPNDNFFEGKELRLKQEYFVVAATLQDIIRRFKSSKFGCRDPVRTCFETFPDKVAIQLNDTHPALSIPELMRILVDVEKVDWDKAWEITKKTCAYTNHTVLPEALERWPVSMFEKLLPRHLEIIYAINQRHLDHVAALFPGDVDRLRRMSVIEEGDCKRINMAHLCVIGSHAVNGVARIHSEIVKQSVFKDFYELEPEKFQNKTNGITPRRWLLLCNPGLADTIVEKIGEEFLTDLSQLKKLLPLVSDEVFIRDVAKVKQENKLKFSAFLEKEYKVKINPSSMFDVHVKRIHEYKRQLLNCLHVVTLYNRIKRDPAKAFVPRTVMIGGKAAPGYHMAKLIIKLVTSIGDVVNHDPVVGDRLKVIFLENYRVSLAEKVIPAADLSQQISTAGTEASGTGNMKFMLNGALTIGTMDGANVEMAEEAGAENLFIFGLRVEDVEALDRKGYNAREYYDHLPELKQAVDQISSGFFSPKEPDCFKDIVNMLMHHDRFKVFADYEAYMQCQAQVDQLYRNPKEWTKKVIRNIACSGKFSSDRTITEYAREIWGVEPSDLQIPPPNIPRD

[6] = biological target: Serine/threonine-protein kinase B-raf (Homo sapiens, UniProt P15056)
Chain of Serine/threonine-protein kinase B-raf (P15056 whole entry): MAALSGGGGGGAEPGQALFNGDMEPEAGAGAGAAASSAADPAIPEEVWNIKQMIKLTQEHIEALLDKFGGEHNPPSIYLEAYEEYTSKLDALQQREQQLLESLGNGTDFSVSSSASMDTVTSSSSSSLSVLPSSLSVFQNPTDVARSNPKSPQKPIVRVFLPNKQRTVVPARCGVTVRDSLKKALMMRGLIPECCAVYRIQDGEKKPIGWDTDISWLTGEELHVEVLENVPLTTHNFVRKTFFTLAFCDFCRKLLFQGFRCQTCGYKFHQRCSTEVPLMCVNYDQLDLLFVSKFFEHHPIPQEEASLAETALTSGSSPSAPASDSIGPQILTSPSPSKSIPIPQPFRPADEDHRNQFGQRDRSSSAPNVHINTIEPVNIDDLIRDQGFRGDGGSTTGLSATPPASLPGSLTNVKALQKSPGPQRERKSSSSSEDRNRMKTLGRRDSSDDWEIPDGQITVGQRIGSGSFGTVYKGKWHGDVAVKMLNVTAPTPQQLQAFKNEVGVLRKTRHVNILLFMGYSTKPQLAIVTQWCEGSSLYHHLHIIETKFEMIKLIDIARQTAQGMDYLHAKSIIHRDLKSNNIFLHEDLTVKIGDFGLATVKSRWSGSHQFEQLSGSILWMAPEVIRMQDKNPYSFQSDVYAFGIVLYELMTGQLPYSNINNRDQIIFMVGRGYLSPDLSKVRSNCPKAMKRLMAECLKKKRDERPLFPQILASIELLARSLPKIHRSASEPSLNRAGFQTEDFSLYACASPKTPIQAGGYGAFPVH
Further: in the data inactive means no Kd found up to 30 µM.

Chain of Cyclin-dependent kinase 12 (Q9NYV4 whole entry): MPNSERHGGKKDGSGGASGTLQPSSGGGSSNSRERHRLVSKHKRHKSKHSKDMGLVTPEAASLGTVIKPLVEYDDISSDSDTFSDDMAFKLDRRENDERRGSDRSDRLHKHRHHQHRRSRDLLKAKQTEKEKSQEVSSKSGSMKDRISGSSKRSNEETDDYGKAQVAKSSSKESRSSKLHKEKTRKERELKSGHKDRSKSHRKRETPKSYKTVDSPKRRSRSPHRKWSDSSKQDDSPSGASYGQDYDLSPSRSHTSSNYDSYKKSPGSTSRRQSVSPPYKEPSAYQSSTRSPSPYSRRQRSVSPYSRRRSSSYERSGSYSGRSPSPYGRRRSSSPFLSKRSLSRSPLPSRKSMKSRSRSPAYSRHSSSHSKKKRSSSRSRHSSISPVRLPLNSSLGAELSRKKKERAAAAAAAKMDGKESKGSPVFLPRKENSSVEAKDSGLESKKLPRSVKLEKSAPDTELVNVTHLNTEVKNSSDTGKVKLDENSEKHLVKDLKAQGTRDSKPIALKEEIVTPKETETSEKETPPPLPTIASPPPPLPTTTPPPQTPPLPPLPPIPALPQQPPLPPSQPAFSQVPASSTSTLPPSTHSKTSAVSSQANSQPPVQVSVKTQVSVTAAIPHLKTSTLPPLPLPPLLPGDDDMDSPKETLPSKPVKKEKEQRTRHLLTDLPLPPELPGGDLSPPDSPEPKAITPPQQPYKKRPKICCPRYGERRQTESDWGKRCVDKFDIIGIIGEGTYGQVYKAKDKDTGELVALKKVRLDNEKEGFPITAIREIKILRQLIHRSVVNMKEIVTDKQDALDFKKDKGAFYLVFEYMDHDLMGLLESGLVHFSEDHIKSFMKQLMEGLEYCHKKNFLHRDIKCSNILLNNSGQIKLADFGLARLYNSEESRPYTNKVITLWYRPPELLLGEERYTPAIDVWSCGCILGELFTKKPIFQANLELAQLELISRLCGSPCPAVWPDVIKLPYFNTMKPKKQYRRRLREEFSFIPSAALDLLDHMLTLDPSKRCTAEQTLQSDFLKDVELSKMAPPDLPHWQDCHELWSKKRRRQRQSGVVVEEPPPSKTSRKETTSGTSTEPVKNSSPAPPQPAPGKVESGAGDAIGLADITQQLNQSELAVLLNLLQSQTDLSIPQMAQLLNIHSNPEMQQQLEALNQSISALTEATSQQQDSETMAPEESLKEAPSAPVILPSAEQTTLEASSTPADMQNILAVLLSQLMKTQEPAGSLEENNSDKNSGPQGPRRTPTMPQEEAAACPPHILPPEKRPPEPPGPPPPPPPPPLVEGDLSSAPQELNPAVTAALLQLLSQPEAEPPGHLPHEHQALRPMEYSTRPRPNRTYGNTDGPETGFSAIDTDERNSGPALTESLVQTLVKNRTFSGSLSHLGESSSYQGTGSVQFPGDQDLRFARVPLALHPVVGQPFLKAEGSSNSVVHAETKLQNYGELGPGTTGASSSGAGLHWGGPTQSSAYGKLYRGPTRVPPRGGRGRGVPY

SMILES	Kd [1]	Kd [2]	Kd [3]	Kd [4]	Kd [5]	Kd [6]
COc1cc(F)c(F)c(Nc2ccc(I)cc2F)c1NS(=O)(=O)C1(C[C@H](O)CO)CC1 [REFAMETINIB]	> 30 µM (inactive)		> 30 µM (inactive)	> 30 µM (inactive)	> 30 µM (inactive)	> 30 µM (inactive)
COc1cc2c(Oc3ccc4[nH]c(C)cc4c3F)ncnc2cc1OCCCN1CCCC1 [CEDIRANIB]	> 30 µM (inactive)	> 30 µM (inactive)			> 30 µM (inactive)	
CN1CCN(c2nc(C3=C(c4c[nH]c5ccccc45)C(=O)NC3=O)c3ccccc3n2)CC1 [SOTRASTAURIN]	> 30 µM (inactive)		> 30 µM (inactive)	> 30 µM (inactive)	> 30 µM (inactive)	> 30 µM (inactive)
CN(C)C/C=C/C(=O)Nc1cc2c(Nc3ccc(F)c(Cl)c3)ncnc2cc1O[C@H]1CCOC1 [AFATINIB]	> 30 µM (inactive)	> 30 µM (inactive)			> 30 µM (inactive)	
O=S(=O)(c1cccc2c(O)nccc12)N1CCCNCC1 [HYDROXYFASUDIL]	> 30 µM (inactive)	> 30 µM (inactive)	> 30 µM (inactive)	> 30 µM (inactive)	> 30 µM (inactive)	
Cc1ccc(C(=O)Nc2ccc(Oc3cc4cnn(C)c4cc3-c3cn[nH]c3)c(F)c2)c(=O)n1-c1ccc(F)cc1 [MERESTINIB]	> 30 µM (inactive)	> 30 µM (inactive)	> 30 µM (inactive)	> 30 µM (inactive)	> 30 µM (inactive)	
O=C(NOC[C@H](O)CO)c1ccc(F)c(F)c1Nc1ccc(I)cc1F [MIRDAMETINIB]	> 30 µM (inactive)	> 30 µM (inactive)	> 30 µM (inactive)	> 30 µM (inactive)	> 30 µM (inactive)	
C[C@@]1(C(=O)Nc2ccc(F)nc2)CCCN1c1nc(Nc2cc(C3CC3)n[nH]2)c2cccn2n1 [BMS-754807]	> 30 µM (inactive)	> 30 µM (inactive)			> 30 µM (inactive)	
CCOc1ccn(-c2ccc(F)cc2)c(=O)c1C(=O)Nc1ccc(Oc2ccnc(N)c2Cl)c(F)c1 [BMS-777607]	> 30 µM (inactive)	> 30 µM (inactive)	> 30 µM (inactive)	> 30 µM (inactive)		
COc1cc2ncnc3c2cc1OCCCCCN(C)Cc1ccc(Br)cc1N3 [JNJ-26483327]	> 30 µM (inactive)	> 30 µM (inactive)	> 30 µM (inactive)	> 30 µM (inactive)	> 30 µM (inactive)	

The next lines start with results.

Kd [1]	Kd [2]	Kd [3]	Kd [4]	Kd [5]	SMILES	Kd [6]
> 30 µM (inactive)	> 30 µM (inactive)	> 30 µM (inactive)	> 30 µM (inactive)	> 30 µM (inactive)	COc1cc2ncnc(Nc3ccc(O)cc3)c2cc1OC [WHI-P131]	
> 30 µM (inactive)		> 30 µM (inactive)	> 30 µM (inactive)	> 30 µM (inactive)	O[C@H]1CC[C@H](Nc2ncc3nc(Nc4c(F)cc(F)cc4F)n([C@H]4CCOC4)c3n2)CC1 [TANZISERTIB]	> 30 µM (inactive)
> 30 µM (inactive)	> 30 µM (inactive)			> 30 µM (inactive)	COc1cc2c(N3CCN(C(=O)Nc4ccc(OC(C)C)cc4)CC3)ncnc2cc1OCCCN1CCCCC1 [TANDUTINIB]	
> 30 µM (inactive)	> 30 µM (inactive)	> 30 µM (inactive)	> 30 µM (inactive)	> 30 µM (inactive)	C=CC(=O)Nc1cccc(Nc2nc(Nc3ccc(N4CCN(C(C)=O)CC4)cc3OC)ncc2C(F)(F)F)c1 [ROCILETINIB]	
> 30 µM (inactive)	> 30 µM (inactive)			> 30 µM (inactive)	Cn1cnc2c(F)c(Nc3ccc(Br)cc3Cl)c(C(=O)NOCCO)cc21 [SELUMETINIB]	
> 30 µM (inactive)	> 30 µM (inactive)			> 30 µM (inactive)	CC1(C)CNc2cc(NC(=O)c3cccnc3NCc3ccncc3)ccc21 [MOTESANIB]	
> 30 µM (inactive)	> 30 µM (inactive)	> 30 µM (inactive)	> 30 µM (inactive)	> 30 µM (inactive)	CC(C)(O)CC(=O)NCCn1ccc2ncnc(Nc3ccc(Oc4cccc(C(F)(F)F)c4)c(Cl)c3)c21 [TAK-285]	
